{
  "source": "patent US12089593B2",
  "about": "“Compositions and methods for treating and preventing dust mite infestation” (EVOLVA SA, priority 2016, dated 2024)",
  "system": "Dust mite Dermataphagoides farinae",
  "assay": "Laboratory bioassay: dust mite susceptibility to nootkatone on treated filter paper envelopes",
  "format": "in vivo",
  "description": "This example describes a laboratory bioassay in which groups of dust mites were exposed to a solution of the product to determine dust mite susceptibility to nootkatone.\nOne milliliter of a 1% (wt/vol) nootkatone in ethanol formulation was applied directly to 9 cm discs of filter paper by pipette. The filter papers were allowed to dry completely and were cut to the appropriate size prior to the start of the test. Pure ethanol was used as a control.\nTreated and untreated (ethanol-treated only) filter papers were cut into 2.5 inch (6.35 cm) squares and folded into envelopes to serve as containers for the test. Five replicates of 35 dust mites were tested per treatment. After the mites were placed inside, the openings were sealed using clips so that the mites could not escape.\nDust mites were only observed after 72 hours post-introduction to the test containers, due to their small size, and the likelihood of loss of mites during handling. […] Results",
  "key": {"[1]": {"conditions": "72 hours post introduction, filter paper treated with 1 mL of 1% (wt/vol) nootkatone in ethanol, dried, five replicates of 35 adult mixed-sex mites"}},
  "data": [
    {"smiles": "C=C(C)[C@@H]1CCC2=CC(=O)C[C@@H](C)[C@]2(C)C1", "note": "[Nootkatone, nootkatone]", "values": [
      {"measurement": "state of mites after exposure (175 total mites)", "setting": "72 hours of exposure to filter papers treated with 1% nootkatone in ethanol", "result": "all dead"},
      {"measurement": "Means Affected", "setting": "[1]", "result": 100.0, "unit": "%"},
      {"measurement": "Means Dead", "setting": "[1]", "result": 100.0, "unit": "%"},
      {"measurement": "Means KD (knockdown)", "setting": "[1]", "result": 0.0, "unit": "%"},
      {"measurement": "mortality rates of dust mites", "setting": "dust mites exposed to low concentrations of nootkatone", "result": 100, "unit": "%"}
    ]}
  ]
}
